Assay results reported in patent publication US12697302B2, “Tricine and citric acid lipids” (Translate Bio, Inc., priority 2019, dated 2026).

Test system: firefly luciferase (FFL) production in the lung
Assay: Delivery of firefly luciferase (FFL) mRNA by intratracheal administration, IVIS imaging of luciferase production in the lung
Format: in vivo
Conditions: lipid nanoparticles with FFL mRNA, cationic lipid, DMG-PEG2000, cholesterol, DOPE; single intratracheal aerosol administration; male CD1 mice; 24 hours after administration
Experimental: Lipid nanoparticle formulations comprising FFL mRNA, cationic lipid, DMG-PEG2000, cholesterol and DOPE were administered to male CD1 mice (6-8 weeks old) by a single intratracheal aerosol administration via a Microsprayer® (50 ul/animal) while under anesthesia. At approximately 24 hours post-dose, the animals were dosed with luciferin at 150 mg/kg (60 mg/ml) by intraperitoneal injection at 2.5 ml/kg. After 5-15 minutes, all animals were imaged using an IVIS imaging system to measure luciferase production in the lung.

Row | SMILES | in vivo protein (FFL) production in the lung / luciferase activity
1 | CCCCCCCCOC(=O)CC(CC(=O)OCCCCCCCC)(OC(=O)CCN(C)C)C(=O)OCCCCCCCC [Compound 1, trioctyl 2-((3-(dimethylamino)propanoyl)oxy) propane-1,2,3-tricarboxylate] | high levels
2 | CCCCCCCCCCCCCCOC(=O)CC(CC(=O)OCCCCCCCCCCCCCC)(OC(=O)CCN1CCCCC1)C(=O)OCCCCCCCCCCCCCC [Compound 16] | high levels
3 | CCCCCCCC(=O)OCC(COC(=O)CCCCCCC)(COC(=O)CCCCCCC)N(CC(=O)OCCN(C)C)C(=O)CCCCCCC [Compound 177, 2-(N-(2-(2-(dimethylamino)ethoxy)-2-oxoethyl)octanamido)-2-((octanoyloxy)methyl) propane-1,3-diyl dioctanoate] | high levels
4 | CCCCC/C=C\C/C=C\CCCCCCCCOC(=O)CC(CC(=O)OCCCCCCCC/C=C\C/C=C\CCCCC)(OC(=O)CCCN(C)C)C(=O)OCCCCCCCC/C=C\C/C=C\CCCCC [Compound 249] | high levels
